Measurements from ChEMBL document CHEMBL5291721, “A preclinical secondary pharmacology resource illuminates target-adverse drug reaction associations of marketed drugs” (Nat Commun, 2023).

Legend:
[1] = biological target: Prostaglandin G/H synthase 1 (Homo sapiens, UniProt P23219); format: functional
[2] = biological target: D(1A) dopamine receptor (Homo sapiens, UniProt P21728)
[3] = biological target: T1, Progesterone receptor (Homo sapiens, UniProt P06401); format: functional
T1 sequence (P06401 whole entry): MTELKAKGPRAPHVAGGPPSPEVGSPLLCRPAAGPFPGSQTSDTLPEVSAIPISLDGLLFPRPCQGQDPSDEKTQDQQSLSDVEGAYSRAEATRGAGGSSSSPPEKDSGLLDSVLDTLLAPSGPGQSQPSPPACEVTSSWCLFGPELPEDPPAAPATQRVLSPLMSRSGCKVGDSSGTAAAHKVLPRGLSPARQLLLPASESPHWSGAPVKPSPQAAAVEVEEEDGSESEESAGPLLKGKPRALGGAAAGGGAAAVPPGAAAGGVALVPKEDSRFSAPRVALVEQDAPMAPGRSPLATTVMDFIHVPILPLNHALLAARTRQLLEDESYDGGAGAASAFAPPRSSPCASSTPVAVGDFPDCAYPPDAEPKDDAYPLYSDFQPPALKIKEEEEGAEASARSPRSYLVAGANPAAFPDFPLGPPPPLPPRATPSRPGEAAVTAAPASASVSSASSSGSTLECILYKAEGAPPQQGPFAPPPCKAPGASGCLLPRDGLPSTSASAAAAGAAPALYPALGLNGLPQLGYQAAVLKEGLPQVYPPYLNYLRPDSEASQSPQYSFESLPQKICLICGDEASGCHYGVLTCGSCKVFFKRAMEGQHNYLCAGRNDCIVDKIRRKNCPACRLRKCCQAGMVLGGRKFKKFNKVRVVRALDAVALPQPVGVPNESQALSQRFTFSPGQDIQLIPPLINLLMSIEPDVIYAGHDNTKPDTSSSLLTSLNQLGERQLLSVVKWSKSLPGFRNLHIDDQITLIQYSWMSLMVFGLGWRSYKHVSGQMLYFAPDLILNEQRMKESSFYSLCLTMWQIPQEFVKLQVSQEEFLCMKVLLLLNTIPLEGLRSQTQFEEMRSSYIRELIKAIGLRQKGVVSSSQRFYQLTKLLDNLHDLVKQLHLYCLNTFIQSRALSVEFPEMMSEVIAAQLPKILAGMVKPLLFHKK

[4] = biological target: Vascular endothelial growth factor receptor 2 (Homo sapiens, UniProt P35968); format: functional
Vascular endothelial growth factor receptor 2, sequence (P35968 whole entry): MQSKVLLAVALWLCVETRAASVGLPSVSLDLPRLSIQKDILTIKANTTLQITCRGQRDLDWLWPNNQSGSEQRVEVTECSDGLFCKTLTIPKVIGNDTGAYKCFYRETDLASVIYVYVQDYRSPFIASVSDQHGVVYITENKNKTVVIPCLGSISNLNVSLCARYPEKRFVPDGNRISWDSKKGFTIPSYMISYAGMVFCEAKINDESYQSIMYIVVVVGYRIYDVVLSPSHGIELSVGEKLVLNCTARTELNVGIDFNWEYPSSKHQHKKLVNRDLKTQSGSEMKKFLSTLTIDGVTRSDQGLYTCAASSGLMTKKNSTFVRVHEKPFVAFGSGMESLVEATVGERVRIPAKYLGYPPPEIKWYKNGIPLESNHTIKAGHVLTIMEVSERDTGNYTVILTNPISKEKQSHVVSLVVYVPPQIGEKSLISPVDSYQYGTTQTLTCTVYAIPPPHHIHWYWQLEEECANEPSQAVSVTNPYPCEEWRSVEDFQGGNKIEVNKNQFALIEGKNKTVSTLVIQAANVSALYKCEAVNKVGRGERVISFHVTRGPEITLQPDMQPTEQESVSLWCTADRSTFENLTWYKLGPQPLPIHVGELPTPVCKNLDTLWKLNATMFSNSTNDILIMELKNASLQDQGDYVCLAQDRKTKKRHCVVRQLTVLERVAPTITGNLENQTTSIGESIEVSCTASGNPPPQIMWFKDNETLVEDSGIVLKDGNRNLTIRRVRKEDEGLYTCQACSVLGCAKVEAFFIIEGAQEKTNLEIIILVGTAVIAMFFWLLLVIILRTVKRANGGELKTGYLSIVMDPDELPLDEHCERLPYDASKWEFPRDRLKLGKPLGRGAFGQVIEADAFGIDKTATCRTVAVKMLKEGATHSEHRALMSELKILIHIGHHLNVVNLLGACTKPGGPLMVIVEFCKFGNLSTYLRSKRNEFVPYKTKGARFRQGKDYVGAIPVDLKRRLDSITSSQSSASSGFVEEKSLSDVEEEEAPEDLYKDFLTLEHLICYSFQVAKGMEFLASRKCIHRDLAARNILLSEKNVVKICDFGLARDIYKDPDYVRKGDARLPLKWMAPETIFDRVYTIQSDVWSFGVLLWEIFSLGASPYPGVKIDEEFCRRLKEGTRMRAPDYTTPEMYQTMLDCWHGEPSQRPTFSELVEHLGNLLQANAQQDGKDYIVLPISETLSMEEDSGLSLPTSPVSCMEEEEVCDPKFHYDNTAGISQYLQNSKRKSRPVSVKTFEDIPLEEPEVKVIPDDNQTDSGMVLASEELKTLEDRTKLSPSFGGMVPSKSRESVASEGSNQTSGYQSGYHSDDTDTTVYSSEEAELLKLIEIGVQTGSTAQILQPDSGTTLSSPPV

[5] = biological target: T2, 5-hydroxytryptamine receptor 1A (Homo sapiens, UniProt P08908)
T2 sequence (P08908 whole entry): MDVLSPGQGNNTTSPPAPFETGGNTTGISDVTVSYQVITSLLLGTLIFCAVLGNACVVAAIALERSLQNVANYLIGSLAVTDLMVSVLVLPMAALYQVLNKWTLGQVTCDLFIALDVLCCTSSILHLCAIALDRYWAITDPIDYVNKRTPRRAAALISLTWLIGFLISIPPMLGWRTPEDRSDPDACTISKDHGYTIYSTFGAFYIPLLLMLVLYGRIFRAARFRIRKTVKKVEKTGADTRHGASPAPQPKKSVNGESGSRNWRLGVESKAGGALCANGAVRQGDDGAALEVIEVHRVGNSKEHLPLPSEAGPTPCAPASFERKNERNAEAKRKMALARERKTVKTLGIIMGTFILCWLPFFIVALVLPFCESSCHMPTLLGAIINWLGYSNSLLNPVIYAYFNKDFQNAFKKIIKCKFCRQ

[6] = biological target: 5-hydroxytryptamine receptor 2B (Homo sapiens, UniProt P41595); format: functional, cell-based
5-hydroxytryptamine receptor 2B, sequence (P41595 whole entry): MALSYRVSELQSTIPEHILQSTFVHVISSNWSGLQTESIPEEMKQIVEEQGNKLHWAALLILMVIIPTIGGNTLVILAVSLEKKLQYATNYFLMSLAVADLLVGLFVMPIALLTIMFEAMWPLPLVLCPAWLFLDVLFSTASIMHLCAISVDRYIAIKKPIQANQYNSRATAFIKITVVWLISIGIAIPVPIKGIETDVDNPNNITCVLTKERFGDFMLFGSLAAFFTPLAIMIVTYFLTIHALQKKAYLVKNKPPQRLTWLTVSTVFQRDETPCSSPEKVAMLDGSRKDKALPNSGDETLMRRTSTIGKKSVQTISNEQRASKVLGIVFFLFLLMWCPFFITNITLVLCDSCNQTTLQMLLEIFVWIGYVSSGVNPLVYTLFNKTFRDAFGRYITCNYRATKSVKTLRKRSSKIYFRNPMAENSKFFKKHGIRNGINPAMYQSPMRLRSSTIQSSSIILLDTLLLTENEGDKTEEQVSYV

[7] = biological target: Histamine H2 receptor (Homo sapiens, UniProt P25021); format: functional, cell-based
Histamine H2 receptor, sequence (P25021 whole entry): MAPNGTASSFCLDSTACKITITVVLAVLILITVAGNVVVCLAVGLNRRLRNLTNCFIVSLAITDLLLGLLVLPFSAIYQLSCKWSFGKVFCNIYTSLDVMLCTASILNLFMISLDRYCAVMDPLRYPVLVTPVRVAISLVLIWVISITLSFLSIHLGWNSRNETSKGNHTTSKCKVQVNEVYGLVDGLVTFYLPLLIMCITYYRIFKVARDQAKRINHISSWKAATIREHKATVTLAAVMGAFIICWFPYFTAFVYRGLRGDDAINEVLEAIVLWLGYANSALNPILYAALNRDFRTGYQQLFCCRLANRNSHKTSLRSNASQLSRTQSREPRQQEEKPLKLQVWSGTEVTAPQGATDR

[8] = biological target: Cannabinoid receptor 1 (Homo sapiens, UniProt P21554)
Cannabinoid receptor 1, sequence (P21554 whole entry): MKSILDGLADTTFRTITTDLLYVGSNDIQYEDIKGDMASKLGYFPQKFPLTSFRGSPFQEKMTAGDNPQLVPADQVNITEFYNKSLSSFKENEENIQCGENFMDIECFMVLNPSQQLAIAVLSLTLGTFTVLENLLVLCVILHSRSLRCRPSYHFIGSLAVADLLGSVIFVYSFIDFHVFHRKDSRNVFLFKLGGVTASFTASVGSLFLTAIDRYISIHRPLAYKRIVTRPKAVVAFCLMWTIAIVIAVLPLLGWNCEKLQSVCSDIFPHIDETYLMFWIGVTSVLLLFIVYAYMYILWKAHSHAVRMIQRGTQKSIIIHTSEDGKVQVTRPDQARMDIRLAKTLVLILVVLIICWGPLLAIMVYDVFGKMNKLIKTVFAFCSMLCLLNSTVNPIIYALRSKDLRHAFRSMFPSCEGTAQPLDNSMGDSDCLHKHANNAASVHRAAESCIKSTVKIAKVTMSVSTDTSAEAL

[9] = biological target: T3, Endothelin-1 receptor (Homo sapiens, UniProt P25101)
T3 sequence (P25101 whole entry): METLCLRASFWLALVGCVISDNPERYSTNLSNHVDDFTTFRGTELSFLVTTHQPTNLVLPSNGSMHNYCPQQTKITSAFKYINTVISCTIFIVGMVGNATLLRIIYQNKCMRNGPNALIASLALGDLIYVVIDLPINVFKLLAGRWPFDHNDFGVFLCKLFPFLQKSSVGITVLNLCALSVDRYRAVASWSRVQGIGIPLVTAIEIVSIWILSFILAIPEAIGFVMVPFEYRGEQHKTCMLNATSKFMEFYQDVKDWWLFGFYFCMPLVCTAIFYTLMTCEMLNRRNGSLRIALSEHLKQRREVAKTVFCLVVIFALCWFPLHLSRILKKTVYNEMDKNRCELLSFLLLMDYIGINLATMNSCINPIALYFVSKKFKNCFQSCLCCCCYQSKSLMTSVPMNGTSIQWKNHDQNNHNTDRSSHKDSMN

[10] = biological target: T4, Alpha-2A adrenergic receptor (Homo sapiens, UniProt P08913)
T4 sequence (P08913 whole entry): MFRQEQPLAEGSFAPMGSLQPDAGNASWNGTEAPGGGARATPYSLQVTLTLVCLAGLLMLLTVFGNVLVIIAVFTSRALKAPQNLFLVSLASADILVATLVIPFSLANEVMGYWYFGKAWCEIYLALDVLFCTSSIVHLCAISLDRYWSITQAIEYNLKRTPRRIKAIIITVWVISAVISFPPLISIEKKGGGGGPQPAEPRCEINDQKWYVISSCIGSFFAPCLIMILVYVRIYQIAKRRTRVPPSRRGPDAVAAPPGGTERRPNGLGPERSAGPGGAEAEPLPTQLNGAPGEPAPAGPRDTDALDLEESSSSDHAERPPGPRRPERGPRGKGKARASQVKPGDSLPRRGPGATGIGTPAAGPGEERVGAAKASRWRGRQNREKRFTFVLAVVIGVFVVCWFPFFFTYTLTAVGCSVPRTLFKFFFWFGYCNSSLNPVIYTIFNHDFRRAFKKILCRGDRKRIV

[11] = biological target: T5, B2 bradykinin receptor (Homo sapiens, UniProt P30411)
T5 sequence (P30411 whole entry): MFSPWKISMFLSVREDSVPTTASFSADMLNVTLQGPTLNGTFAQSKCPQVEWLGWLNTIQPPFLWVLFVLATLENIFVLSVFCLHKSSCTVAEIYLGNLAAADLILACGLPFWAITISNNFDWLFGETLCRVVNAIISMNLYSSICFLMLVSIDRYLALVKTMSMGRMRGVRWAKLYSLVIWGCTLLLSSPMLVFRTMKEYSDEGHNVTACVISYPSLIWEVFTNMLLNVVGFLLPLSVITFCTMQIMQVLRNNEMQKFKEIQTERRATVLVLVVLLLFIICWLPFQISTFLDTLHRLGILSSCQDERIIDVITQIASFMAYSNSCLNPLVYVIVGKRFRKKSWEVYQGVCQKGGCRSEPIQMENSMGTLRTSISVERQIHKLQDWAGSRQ
Also: assay procedure not described here.

Prostaglandin G/H synthase 1, sequence (P23219 whole entry): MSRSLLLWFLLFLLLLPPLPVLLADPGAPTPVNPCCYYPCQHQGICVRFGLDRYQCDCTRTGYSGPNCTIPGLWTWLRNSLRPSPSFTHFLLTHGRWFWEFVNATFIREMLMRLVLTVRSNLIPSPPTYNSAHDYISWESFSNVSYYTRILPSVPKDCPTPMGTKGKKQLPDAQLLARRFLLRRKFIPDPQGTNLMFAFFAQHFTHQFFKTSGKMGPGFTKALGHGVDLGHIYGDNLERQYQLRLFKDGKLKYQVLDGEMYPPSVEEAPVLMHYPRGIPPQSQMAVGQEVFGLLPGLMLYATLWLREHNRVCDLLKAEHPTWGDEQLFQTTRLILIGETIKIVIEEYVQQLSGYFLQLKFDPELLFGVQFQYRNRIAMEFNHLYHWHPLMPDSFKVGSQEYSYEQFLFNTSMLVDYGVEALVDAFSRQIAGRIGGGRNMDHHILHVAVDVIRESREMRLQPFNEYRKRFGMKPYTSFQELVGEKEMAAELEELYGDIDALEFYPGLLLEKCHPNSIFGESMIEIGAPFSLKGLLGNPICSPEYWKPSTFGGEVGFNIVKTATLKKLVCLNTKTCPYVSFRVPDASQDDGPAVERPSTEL
D(1A) dopamine receptor, sequence (P21728 whole entry): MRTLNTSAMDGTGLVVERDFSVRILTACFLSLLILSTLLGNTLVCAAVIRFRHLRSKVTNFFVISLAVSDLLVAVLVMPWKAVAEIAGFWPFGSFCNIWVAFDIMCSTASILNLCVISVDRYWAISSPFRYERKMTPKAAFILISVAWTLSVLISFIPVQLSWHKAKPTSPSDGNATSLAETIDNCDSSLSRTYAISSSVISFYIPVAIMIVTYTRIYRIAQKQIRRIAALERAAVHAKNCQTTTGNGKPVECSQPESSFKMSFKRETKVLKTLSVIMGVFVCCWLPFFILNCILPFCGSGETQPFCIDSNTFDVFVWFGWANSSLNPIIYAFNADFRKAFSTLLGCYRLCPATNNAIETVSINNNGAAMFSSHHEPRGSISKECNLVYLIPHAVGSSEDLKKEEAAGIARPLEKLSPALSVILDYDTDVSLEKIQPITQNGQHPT

Structure (SMILES) | AC50 [1] | AC50 [2] | AC50 [3] | AC50 [4] | AC50 [5] | AC50 [6] | AC50 [7] | AC50 [8] | AC50 [9] | AC50 [10] | AC50 [11]
C[C@H]1O[C@H](O[C@H]2[C@H](O)[C@@H](O)[C@@H](O[C@H]3[C@H](O)[C@@H](O)C(O)O[C@@H]3CO)O[C@@H]2CO)[C@H](O)[C@@H](O)[C@@H]1N[C@H]1C=C(CO)[C@@H](O)[C@H](O)[C@H]1O (some centres not stated) [ACARBOSE] | > 30 µM | > 30 µM | > 30 µM | > 30 µM | > 30 µM | > 30 µM | > 10 µM | > 10 µM | > 30 µM | > 30 µM | > 30 µM
CC(C)C(=O)Nc1ccc([N+](=O)[O-])c(C(F)(F)F)c1 [FLUTAMIDE] | > 30 µM | > 30 µM | > 10 µM | > 30 µM | > 30 µM | > 30 µM | > 30 µM | > 10 µM |  | > 30 µM | > 30 µM
NC(=O)c1cnccn1 [PYRAZINAMIDE] | > 30 µM | > 30 µM | > 30 µM | > 30 µM | > 30 µM | > 30 µM | > 30 µM | > 30 µM | > 30 µM | > 30 µM | > 30 µM
